{"source": "paper PMC10728220", "about": "“Novel 3-(pyrazol-4-yl)-2-(1H-indole-3-carbonyl)acrylonitrile derivatives induce intrinsic and extrinsic apoptotic death mediated P53 in HCT116 colon carcinoma” (Scientific Reports, 2023)", "key": {"p53": {"system": "p53", "test": "RT-PCR gene expression, p53, in HCT116", "assay_type": "cell-based, human", "conditions": "HCT116, 6.76 µg/mL, 48 h, relative to untreated control", "protocol": "(§1) In this current research, relative gene expression related to apoptosis should be studied well because they were very interesting to understand the effect of our selected compound on this important biological process. HCT116 cells were treated with chalcone 7f (6.76µg/mL) for 48 h, and then subjected to qPCR analysis regarding control samples. The effect of chalcone 7f on the expression level of (Bax, p53, Bcl2, and CDK4) genes was assessed using the qPCR technique. […] As indicated in this schematic diagram, the expression of apoptotic genes (Bax and P53) was enhanced by the effect of chalcone 7f to reach (3.662, and 5.435) respectively, relative to the control.\n(§2) Total RNA was extracted from the compound 7f-treated HCT116 cells and the untreated cells using the RNA Purification Kit GeneJET (Thermo scientific, ON, Canada) 0.1 µg of the extracted RNA was reverse transcribed into complementary DNA (cDNA) using High-Capacity cDNA Reverse Transcription Kit (Thermo Scientific, ON, Canada). qPCR was done using Brilliant SYBR Green qPCR master mix (Applied Biosystems, San Francisco, CA, USA) in One Step Plus Real-Time PCR System (Applied Biosystems, San Francisco, CA, USA). […] The relative gene expression was determined using the 2^−ΔΔCt equation after normalization to the expression of β-actin (housekeeping gene) (Qiagen, CA, USA)(10 pmol/µL)[85], [86]. […]"}, "Human caspase-9": {"system": "Human caspase-9", "test": "ELISA caspase 9 production in HCT116", "assay_type": "cell-based", "conditions": "HCT116 treated with 7f", "protocol": "The compound 7f induced caspase 9 production in a dose–response approach. This was achieved by using the following concentrations of chalcone 7f (1.6, 3.1, 6.3, 12.5, 25, 50, 100 ng/ml). There was a continuing rise in the caspase 9 production level by increasing the concentrations regularly. Compound 7f was able to stimulate the production of caspase 9 by inducing a 21.43 ng/ml of caspase 9.\nThe quantitative measurements of Human caspases-3, -8, and -9 concentrations in HCT116 cell culture lysates were performed using ELISA assay. The protocols were followed up based on the manuscript instructions described in the following kits; Invitrogen human Caspase-3 Elisa Kit, Catalog # KHO1091, DRG® human Caspase-8 ELISA Kit, Catalog # (EIA-4863), and DRG® human Caspase-9 ELISA Kit, Catalog # (EIA-4860)respectively. In short, the procedure described in the above protocols was as instructed; all reagents, standards, and samples were prepared. Then, 100 μL of standard or samples were added to each well and incubated at room temperature for 2 h. […] All readings were measured immediately at a wavelength of 450 nm. From the readings of the standards, a standard curve was plotted using curve fitting software. Then, the concentrations for unknown samples and controls were measured from the standard curve."}, "CDK4": {"system": "CDK4", "test": "RT-PCR gene expression, CDK4, in HCT116", "assay_type": "cell-based, human", "conditions": "HCT116, 6.76 µg/mL, 48 h, relative to untreated control", "protocol": "as §1, §2"}, "HCT116 cells [1]": {"system": "HCT116 cells", "test": "Flow cytometric analysis of cell cycle", "assay_type": "cell-based, human", "conditions": "HCT116, 6.76 µg/mL, 48 h", "protocol": "(§3) Chalcone 7f was selected for more investigations, in attempts to find its molecular action on cancer cells. It illustrated high and very interesting cytotoxicity toward the tested colon cancer cell line (HCT116) as mentioned in the above MTT assay data (Table 1). A flow cytometric report was utilized in this recent paper to investigate the effect of our novel acrylonitrile compound 7f on the cell cycle, HCT116 cells were treated with compound 7f at a dose of (6.76 µg/mL) for 48 h and subjected to flow cytometric analysis.\nIn this study, non-treated HCT116 cells were used as a negative control. After the incubation period of 48 h, HCT116 treated cells were centrifuged at 1,200 rpm at 4 °C for 10 min. After disposing of the supernatant, the cell pellet was suspended in phosphate-buffered saline (PBS) and then centrifuged at 1200 rpm for 10 min. 70% cold ethanol was added overnight to allow the fixation of the cell pellet. After the step of centrifugation, the propidium iodide (PI) mixture was added to the cell pellet for 30 min at room temperature in the darkness. Subsequently, cells were subjected to Epics XL-MCL flow cytometer (BeckmanCoulter, Miami, FL) for analysis of DNA content. The percentage of cells in different phases of the cell cycle was analyzed by Multicycle software (Phoenix Flow Systems, San Diego, CA)."}, "Bax": {"system": "Bax", "test": "RT-PCR gene expression, Bax, in HCT116", "assay_type": "cell-based, human", "conditions": "HCT116, 6.76 µg/mL, 48 h, relative to untreated control", "protocol": "as §1, §2"}, "HCT116 cells [2]": {"system": "HCT116 cells", "test": "Flow cytometric analysis of apoptosis (Annexin V-FITC/PI)", "assay_type": "cell-based, human", "conditions": "HCT116, 7f treated", "protocol": "as §3\nThe percentage of apoptotic cells was detected using Annexin V-FITC kit catalogue number (#K101-25). Briefly, 5 × 10^5 of HCT116 cells were collected by centrifugation. Then, the cell pellet was suspended in 500 µL of 1X Binding Buffer. Afterward, 5 µL of Annexin V-FITC and 5 µL of propidium iodide were added to cells and kept at room temperature for 5 min in the dark[89]–[91]. Finally, the percentage of the apoptotic cells was detected by flow cytometry using the FITC signal detector(usually FL-1) and PI staining by the phycoerythrin emission signal detector (usually FL-2)."}}, "data": [{"smiles": "N#C/C(=C\\c1cn(-c2ccccc2)nc1-c1ccc([N+](=O)[O-])cc1)C(=O)c1c[nH]c2ccccc12", "note": "[Compound 7f, (E)-2-(1H-Indole-3-carbonyl)-3-(3-(4-nitrophenyl)-1-phenyl-1H-pyrazol-4-yl)acrylonitrile]", "values": [{"measurement": "RT-PCR fold change p53", "setting": "p53", "result": 5.435, "unit": "fold"}, {"measurement": "caspase 9 production", "setting": "Human caspase-9", "result": 21.43, "unit": "ng/mL"}, {"measurement": "caspase 9 production, fold increase compared to control cells", "setting": "Human caspase-9", "result": "~4.641", "unit": "fold"}, {"measurement": "RT-PCR fold change CDK4", "setting": "CDK4", "result": 0.454, "unit": "fold"}, {"measurement": "DNA content in G2/M phase (%DIP G2/M)", "setting": "HCT116 cells [1]; control 13.68%", "result": 2.55, "unit": "%"}, {"measurement": "cells in S phase (%DIP S)", "setting": "HCT116 cells [1]; control 41.04%", "result": 46.12, "unit": "%"}, {"measurement": "cell accumulation in G1 phase (%DIP G1)", "setting": "HCT116 cells [1]; control 45.28%", "result": 51.33, "unit": "%"}, {"measurement": "RT-PCR fold change Bax", "setting": "Bax", "result": 3.662, "unit": "fold"}, {"measurement": "early apoptotic induction", "setting": "HCT116 cells [2]; control 0.32%", "result": 21.38, "unit": "%"}, {"measurement": "necrosis", "setting": "HCT116 cells [2]; control 1.12%", "result": 6.82, "unit": "%"}]}]}
